# Results reported in US6998503B2, “Crystalline solid form of (2S,5Z)-2-amino-7-(ethanimidoylamino)-2-methylhept-5-enoic acid” (Pharmacia Corporation, priority 2002, dated 2006).
# Values joined by “and” are separate entries in the source; they are usually repeats but may differ in a detail not shown here. Identical values can stand only once.
# Key:
# Type in all cases: physicochemical
# [1] = Solubility of the amorphate in solvents
# [2] = Analysis of amorphous material (hygroscopicity note at elemental analysis); conditions: observed at elemental analysis
# [3] = Moisture sorption by DVS moisture balance; conditions: for Desorption / Sorption (moisture gain) / Hysteresis Cycle 1: 25° C.
# From the text: The crystalline 2-amino-7-(ethanimidoylamino)-2-methylhept-5-enoic acid 1.5 HCl is nonhygroscopic at and below 70% relative humidity. […] At 80% R.H. the gain was 18.5%, and at 90% R.H. the gain was 76.8%. The instrument cycled back to low relative humidity and the sample was removed then examined by polarized light microscopy. The sample was fully crystalline after removal from the moisture balance, but the crystallite size had increased. […] This salt form, 1.5 HCl has no solvation.
compound,measurement,setting,value
"CC(=N)NC/C=C\CCC(C)(N)C(=O)O (stereo in doubt) [(2S,5Z)-2-amino-7-(ethanimidoylamino)-2-methylhept-5-enoic acid]",solubility,"[1]; dry solvents: acetone, MEK, methyl isobutyl ketone, THF, ethyl acetate, chloroform, methylene chloride, hexanes, cyclohexane, di-isopropyl ether, acetonitrile, toluene",less than one
same,solubility,"[1]; in isopropanol and solvents containing water: 10% water in THF, water saturated ethyl acetate, 10% water in acetonitrile, higher alcohols with water",soluble
same,solubility,"[1]; in water, methanol and ethanol",freely soluble
same,hygroscopicity,[2],(Note: Material appears to be hygroscopic - elemental
"CC(=N)NC/C=C\CC[C@](C)(N)C(=O)O.CC(=N)NC/C=C\CC[C@](C)(N)C(=O)O.Cl.Cl.Cl [(2S,5Z)-2-amino-7-(ethanimidoylamino)-2-methylhept-5-enoic acid 1.5 HCl]",Desorption,[3]; target RH 0.0%,13.02%
same,Sorption (moisture gain),[3]; target RH 0.0%,0.00%
same,Sorption (moisture gain),[3]; target RH 10.0%,0.10%
same,Desorption,[3]; target RH 20.0%,18.93%
same,Hysteresis Cycle 1,[3]; target RH 20.0%,18.77%
same,Sorption (moisture gain),[3]; target RH 20.0%,0.16%
same,Sorption (moisture gain),[3]; target RH 30.0%,0.21%
same,Desorption,[3]; target RH 40.0%,22.72%
same,Hysteresis Cycle 1,[3]; target RH 40.0%,22.46%
same,Sorption (moisture gain),[3]; target RH 40.0%,0.26%
same,Sorption (moisture gain),[3]; target RH 50.0%,0.28%
same,Desorption,[3]; target RH 60.0%,33.44%
same,Hysteresis Cycle 1,[3]; target RH 60.0%,33.16%
same,Sorption (moisture gain),[3]; target RH 60.0%,0.27%
same,Sorption (moisture gain),[3]; target RH 70.0%,0.91%
same,Desorption,[3]; target RH 80.0%,67.59%
same,Hysteresis Cycle 1,[3]; target RH 80.0%,49.10%
same,Sorption (moisture gain),"[3]; target RH 80.0%, HCl",18.5% and 18.48%
same,Sorption (moisture gain),[3]; target RH 85.0%,46.91%
same,Desorption,[3]; target RH 90.0%,76.82%
same,Sorption (moisture gain),"[3]; target RH 90.0%, HCl",76.8% and 76.82%
same,hygroscopicity,[3]; at and below 70% relative humidity,nonhygroscopic
